{
  "source": "patent US20140220110A1",
  "about": "“REMOTE LOADING OF SPARINGLY WATER-SOLUBLE DRUGS INTO LIPOSOMES” (ZONEONE PHARMA, INC., priority 2013, published 2014)",
  "key": {"[1]": {"test": "Carfilzomib solubility as a function of DMSO content (optical density at 600 nm)", "type": "physicochemical", "details": "0.2 mg/mL carfilzomib", "method": "Carfilzomib was added from a stock 10 mg/mL solution in DMSO to 1 mL of a citric acid/DMSO mixture so that the composition of DMSO was 2%, 25%, 50%, 75% and 100%. The final drug concentration was 0.2 mg/mL. The solutions were prepared and measured for optical density at 600 nm. The optical density at 600 nm is a good measure of how turbid or how much scattering material (such as drug precipitates) are in a solution, generally, the more precipitates the higher the absorbance. From FIG. 8 is apparent that at DMSO concentrations below 50% vol/vol (25° C.) and 25% vol/vol (65° C.) the drug remains in a precipitated form. Only when the concentration of DMSO is increased does it become effectively solubilized at this concentration of 0.2 mg/mL."}, "[2]": {"test": "Remote loading of carfilzomib precipitate into liposomes (drug and lipid by HPLC after purification)", "type": "physicochemical", "details": "for efficiency of remote loading: 100 g drug/mol HSPC", "method": "Ammonium sulfate solution was prepared by dissolving ammonium sulfate solid to a final concentration of 250 mM (500 mequivilents of anion/L) no pH adjustment was made to yield a final pH of 5.6. Sodium sulfate solution (250 mM) was prepared by adding 0.35 g sodium sulfate to 10 mL deionized water.\nThe liposomes were formed by extrusion. Lipids were dissolved in ethanol at a concentration of 500 mM HSPC (591 mg/mL total lipid) at 65° C. and the 9 volumes of the trapping agent solution heated to 65° C. was added to the ethanol/lipid solution also at 65° C. The mixture was vortexed and transferred to a 10 mL thermostatically controlled (65° C.) Lipex Extruder. The liposomes were formed by extruding 10 times through polycarbonate membranes having 0.1 um pores. After extrusion the liposomes were cooled on ice. The transmembrane electrochemical gradient was formed by purification of the liposomes by dialysis in dialysis tubing having a molecular weight cut off of 12,000-14,000. The samples are dialyzed against 5 mM HEPES, 10% sucrose pH 6.5 (stirring at 4° C.) at volume that is 100 fold greater than the sample volume. The dialysate was changed after 2 h then 4 more times after 12 h each. The conductivity of the liposome solution was measured and was indistinguishable from the dialysis medium ˜40 μS/cm.\nThe lipid concentration is determined by measuring the cholesterol by HPLC using an Agilent 1100 HPLC with and Agilent Zorbax 5 um, […], Eclipse XDB-C8 column and a mobile phase of A=0.1% TFA, B=0.1% TFA/MeOH with an isocratic elution of 99% B. The flow rate is 1.0 mL/min, column temperature is 50° C., 10 μL injection and detection by absorbance at 205 nm. The retention time of cholesterol is 4.5 min. The liposome size is measured by dynamic light scattering.\nCarfilzomib (Selleck Chemicals) was dissolved in DMSO at a concentration of 10 mg/mL. The carfilzomib was introduced to the liposomes at a carfilzomib to HSPC ratio of 100 g drug/mol HSPC (drug to total lipid ratio (wt/wt) of 0.12). The liposomes were diluted with 50 mM citrate, 10% sucrose pH 4.0 to increase the volume to a point where after addition of the drug the final DMSO concentration is 2%. The carfilzomib/DMSO was added to the diluted liposomes, which were mixed at room temperature then transferred to a 65° C. bath and swirled every 30 s for the first 3 min and then swirled every 5 min over a total heating time of 30 min. All samples were very cloudy when the drug was added and all became clear (same as liposomes with no drug added) after 15 min. After heating for 30 min all samples were placed on ice for 15 min. The loaded liposomes were vortexed and 100 μL of sample was kept as the “before column” and the rest transferred to microcentrifuge tubes and spun at 10,000 RPM for 5 min. The supernatants were purified on a Sephadex G25 column collected and analyzed by HPLC. The HPLC analysis of carfilzomib was performed on the same system as described for analysis of cholesterol. The mobile phase consists of A=0.1% TFA, B=0.1% TFA/MeOH with a gradient elution starting at 50% B and increasing to 83% B in 13 min with 7 min equilibration back to 50% B. The flow rate is 1.0 mL/min, column temperature is 30 C, 10 μl injection and detection by absorbance at 205 nm. The retention time of carfilzomib is 12.2 min. The lipid concentration is determined by analysis of the cholesterol by HPLC."}, "[3]": {"details": "250 mM ammonium sulfate liposomes, drug added at 100 g drug/mol HSPC"}},
  "data": [
    {"smiles": "CC(C)C[C@H](NC(=O)[C@H](CCc1ccccc1)NC(=O)CN1CCOCC1)C(=O)N[C@@H](Cc1ccccc1)C(=O)N[C@@H](CC(C)C)C(=O)[C@@]1(C)CO1", "note": "[carfilzomib]", "values": [
      {"measurement": "DMSO concentration below which the drug remains in a precipitated form", "setting": "[1]; 25 C", "result": 50, "unit": "% vol/vol"},
      {"measurement": "DMSO required to completely dissolve the drug", "setting": "[1]; 65 C", "result": "> 25", "unit": "% vol/vol"},
      {"measurement": "efficiency of remote loading", "setting": "[2]; 10 mg/mL DMSO solution added in 5 increments over 1 min while vortexing", "result": "96.3%±1.09%"},
      {"measurement": "final drug to lipid ratio", "setting": "[2]; [3]", "result": "95.26±3.47 g drug/mol of HSPC"},
      {"measurement": "loading efficiency", "setting": "[2]; [3]", "result": "95.26±3.47", "unit": "%"},
      {"measurement": "final drug load", "setting": "[2]; control liposomes with 250 mM sodium sulfate (no gradient), drug added at 100 g drug/mol HSPC", "result": "33.28±0.79 g drug/mol of HSPC"},
      {"measurement": "loading capacity of remote loaded liposomes over sodium sulfate liposomes", "setting": "[2]; input 100 g drug/mol HSPC", "result": "> 3", "unit": "fold"},
      {"measurement": "efficiency of remote loading", "setting": "[2]; trapping agent ammonium sulfate, 10 mg/mL DMSO solution added quickly", "result": "97.0%±2.38%"}
    ]}
  ]
}
